Results as given in PubChem BioAssay AID330 (DTP/NCI, 2004).
“And” between values parts separate entries of the source, which are not always exact repeats. Identical values can stand only once. Inconclusive results and toxic doses are left out. The calls were made as follows: active = survival T/C of 150% or more; inactive = T/C below 125% in these data.

System: P388 leukemia ip, CD2F1 mice, survival T/C
Experiment: NCI In Vivo Anticancer Drug Screen. Data for tumor model P388 Leukemia (intraperitoneal) in CD2F1 (CDF1) mice
Conditions: endpoint: median survival time, higher = longer survival
Procedure, shortened: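 Mice carrying the transplanted tumor received test compound or vehicle. Survival was recorded in each group, and the value is the treated-group measurement divided by that of the vehicle-treated control group.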

[1] = dose: 25.0 mg/kg/injection, schedule: Q01DX009 (ip), vehicle: other
[2] = dose: 25.0 mg/kg/injection, schedule: Q01DX009 (ip), vehicle: saline with Tween-80
[3] = dose: 50.0 mg/kg/injection, schedule: Q01DX005 (ip), vehicle: saline
[4] = dose: 50.0 mg/kg/injection, schedule: Q01DX009 (ip), vehicle: saline
[5] = dose: 100.0 mg/kg/injection, schedule: Q01DX009 (ip), vehicle: saline with Tween-80
[6] = dose: 15.0 mg/kg/injection, schedule: Q01DX005 (ip), vehicle: saline
[7] = dose: 6.25 mg/kg/injection, schedule: Q01DX005 (ip), vehicle: Klucel (hydroxypropylcellulose) (HPC)
[8] = dose: 12.5 mg/kg/injection, schedule: Q01DX005 (ip), vehicle: Klucel (hydroxypropylcellulose) (HPC)
[9] = dose: 25.0 mg/kg/injection, schedule: Q01DX005 (ip), vehicle: Klucel (hydroxypropylcellulose) (HPC)
[10] = dose: 50.0 mg/kg/injection, schedule: Q01DX005 (ip), vehicle: saline with Tween-80
[11] = dose: 100.0 mg/kg/injection, schedule: Q01DX005 (ip), vehicle: saline with Tween-80
[12] = dose: 50.0 mg/kg/injection, schedule: Q01DX009 (ip), vehicle: Klucel (hydroxypropylcellulose) (HPC)
[13] = dose: 100.0 mg/kg/injection, schedule: Q01DX009 (ip), vehicle: Klucel (hydroxypropylcellulose) (HPC)
[14] = dose: 200.0 mg/kg/injection, schedule: Q01DX009 (ip), vehicle: Klucel (hydroxypropylcellulose) (HPC)
[15] = dose: 60.0 mg/kg/injection, schedule: Q01DX005 (ip), vehicle: saline with Tween-80
[16] = dose: 120.0 mg/kg/injection, schedule: Q01DX005 (ip), vehicle: saline with Tween-80
[17] = dose: 240.0 mg/kg/injection, schedule: Q01DX005 (ip), vehicle: saline with Tween-80

Measured: T/C

CC1=NS(C)(=O)=c2ccc(C)cc2=N1 (stereo not drawn)
inactive: dose: 50.0 mg/kg/injection, schedule: Q01DX005 (ip), vehicle: acetone 100 % of control | dose: 100.0 mg/kg/injection, schedule: Q01DX005 (ip), vehicle: acetone 100 % of control | dose: 200.0 mg/kg/injection, schedule: Q01DX005 (ip), vehicle: acetone 100 % of control

CC(=O)O[C@@H]1[C@@H](O)C2=C3[C@]4(C)[C@@H]1C(C)(C)C(=O)C[C@@H]4[C@]3(O)[C@H](OC(C)=O)[C@@]1(C[C@@H]1C)C2=O
inactive: [1] 118 % of control | [2] 115 % of control

CCCCCN(CCCCC)CC(C)(O)CNc1cc(OC)cc2cccnc12 (stereo not drawn)
inactive: [3] 95 % of control | dose: 100.0 mg/kg/injection, schedule: Q01DX005 (ip), vehicle: saline 87 % of control

O=c1c2cc3c(cc2c2cccc4ccn1c42)OCO3
inactive: dose: 4.5 mg/kg/injection, schedule: Q01DX009 (ip), vehicle: Klucel (hydroxypropylcellulose) (HPC) 105 % of control | dose: 9.0 mg/kg/injection, schedule: Q01DX009 (ip), vehicle: Klucel (hydroxypropylcellulose) (HPC) 115 % of control | dose: 18.0 mg/kg/injection, schedule: Q01DX009 (ip), vehicle: Klucel (hydroxypropylcellulose) (HPC) 107 % of control | dose: 36.0 mg/kg/injection, schedule: Q01DX009 (ip), vehicle: Klucel (hydroxypropylcellulose) (HPC) 104 % of control

CC[N+](C)(CC)C[Si](C)(C)c1ccccc1
inactive: dose: 12.5 mg/kg/injection, schedule: Q01DX005 (ip), vehicle: saline 98 % of control | dose: 25.0 mg/kg/injection, schedule: Q01DX005 (ip), vehicle: saline 100 % of control | [3] 105 % of control and 98 % of control

CC(C)=CCC/C(C)=C/COC(=O)C1C(C=C(C)C)C1(C)C (stereo not drawn)
inactive: [4] 100 % of control | dose: 100.0 mg/kg/injection, schedule: Q01DX009 (ip), vehicle: saline 100 % of control | dose: 200.0 mg/kg/injection, schedule: Q01DX009 (ip), vehicle: saline 116 % of control | dose: 400.0 mg/kg/injection, schedule: Q01DX009 (ip), vehicle: saline 101 % of control

COC1CCC(NS(=O)(=O)c2ccc(N)cc2)[N-]N1.[Ag+] (stereo not drawn)
inactive: dose: 12.5 mg/kg/injection, schedule: Q01DX009 (ip), vehicle: saline 93 % of control | dose: 25.0 mg/kg/injection, schedule: Q01DX009 (ip), vehicle: saline 101 % of control | [4] 98 % of control and 109 % of control

Cn1c(O)c(N=O)c(=O)n(C)c1=O
inactive: [2] 105 % of control | dose: 50.0 mg/kg/injection, schedule: Q01DX009 (ip), vehicle: saline with Tween-80 100 % of control | [5] 111 % of control

Cc1ccc2nc(=O)c3cccnc3n2c1
inactive: dose: 3.75 mg/kg/injection, schedule: Q01DX005 (ip), vehicle: saline 103 % of control | dose: 7.5 mg/kg/injection, schedule: Q01DX005 (ip), vehicle: saline 97 % of control | [6] 98 % of control

C#CC1CC2C3CCC4=CC(=O)CCC4(C)C3CCC2(C)C1N(C)C (stereo not drawn)
inactive: [7] 99 % of control | [8] 102 % of control | [9] 96 % of control

CN(C)c1ccc2nc3ccc(=[N+](C)C)c([N+](=O)[O-])c-3sc2c1
inactive: [6] 105 % of control | dose: 30.0 mg/kg/injection, schedule: Q01DX005 (ip), vehicle: saline 100 % of control | [10] 116 % of control | [11] 100 % of control

O=C(N/N=C/c1cc(Cl)cc(Cl)c1[O-])c1ccccc1.O=C(N/N=C/c1cc(Cl)cc(Cl)c1[O-])c1ccccc1.[Zn+2]
inactive: dose: 100.0 mg/kg/injection, schedule: Q01DX001 (ip), vehicle: saline with Tween-80 92 % of control | dose: 200.0 mg/kg/injection, schedule: Q01DX001 (ip), vehicle: saline with Tween-80 94 % of control | dose: 400.0 mg/kg/injection, schedule: Q01DX001 (ip), vehicle: saline with Tween-80 92 % of control

O=C(CCl)Nc1nncs1
inactive: dose: 12.5 mg/kg/injection, schedule: Q01DX009 (ip), vehicle: distilled water + Tween-80 100 % of control | dose: 25.0 mg/kg/injection, schedule: Q01DX009 (ip), vehicle: distilled water + Tween-80 104 % of control | dose: 50.0 mg/kg/injection, schedule: Q01DX009 (ip), vehicle: distilled water + Tween-80 106 % of control | dose: 100.0 mg/kg/injection, schedule: Q01DX009 (ip), vehicle: distilled water + Tween-80 104 % of control | dose: 200.0 mg/kg/injection, schedule: Q01DX009 (ip), vehicle: distilled water + Tween-80 100 % of control

CCOC(=O)C1(n2[nH]c(=O)n(-c3ccccc3)c2=O)CC(C)(C)OC1=O (stereo not drawn)
inactive: [12] 106 % of control | [13] 98 % of control | [14] 98 % of control

CCOC(=O)C(=O)Nc1ccccc1
inactive: [5] 99 % of control | dose: 200.0 mg/kg/injection, schedule: Q01DX009 (ip), vehicle: saline with Tween-80 97 % of control | dose: 400.0 mg/kg/injection, schedule: Q01DX009 (ip), vehicle: saline with Tween-80 99 % of control

C=CCN1C(=O)CCN(S(=O)(=O)c2ccc(-n3nc(C(=O)O)cc3C)cc2)C1=S
inactive: [10] 103 % of control | [11] 107 % of control | dose: 200.0 mg/kg/injection, schedule: Q01DX005 (ip), vehicle: saline with Tween-80 99 % of control

COC(=O)C1=C(N)C(C#N)=C(C)C(C)(O)C1 (stereo not drawn)
inactive: [12] 99 % of control | [13] 97 % of control | [14] 108 % of control

O=C(Nc1ccccc1)ON=C1CCCCC1
inactive: [15] 101 % of control | [16] 96 % of control | [17] 99 % of control

O=C1c2ccccc2C(=O)N1CCP(=O)(c1ccccc1)c1ccccc1
inactive: dose: 12.5 mg/kg/injection, schedule: Q01DX009 (ip), vehicle: other 98 % of control | [1] 106 % of control | dose: 50.0 mg/kg/injection, schedule: Q01DX009 (ip), vehicle: other 98 % of control | dose: 100.0 mg/kg/injection, schedule: Q01DX009 (ip), vehicle: other 91 % of control | dose: 200.0 mg/kg/injection, schedule: Q01DX009 (ip), vehicle: other 91 % of control

C=CCn1c(=O)n(CC)c(=O)c2[nH]c(Cl)nc21
inactive: dose: 15.0 mg/kg/injection, schedule: Q01DX009 (ip), vehicle: saline 106 % of control | dose: 30.0 mg/kg/injection, schedule: Q01DX009 (ip), vehicle: saline 110 % of control | dose: 60.0 mg/kg/injection, schedule: Q01DX009 (ip), vehicle: saline 104 % of control

CC(C)(C)c1cc2c3c(c1)Oc1cc(C(C)(C)C)cc4c1C3(O)c1c(cc(C(C)(C)C)cc1O4)O2
inactive: dose: 1.56 mg/kg/injection, schedule: Q01DX005 (ip), vehicle: Klucel (hydroxypropylcellulose) (HPC) 107 % of control | dose: 3.12 mg/kg/injection, schedule: Q01DX005 (ip), vehicle: Klucel (hydroxypropylcellulose) (HPC) 104 % of control and 108 % of control | [7] 101 % of control and 110 % of control and 118 % of control | [8] 107 % of control and 111 % of control and 120 % of control | [9] 102 % of control

CC1(C)COC1(c1ccccc1)c1cccnc1 (stereo not drawn)
inactive: [15] 97 % of control | [16] 102 % of control | [17] 93 % of control
